# From paper PMC10575921 (Nature Communications, 2023)
# Several values for one entry are separate records, joined by “and”; a condition that tells them apart may be missing. Identical values can stand only once. Like-named read-outs stand apart in the source and are kept apart here.
# Legend:
# [1] = male, C57BL/6J, mouse, in vivo
# SARS-CoV-2 Delta strain = test: microbe, parasite or virus in culture; format: cell-based
# [2] = tested on: human primary hepatocytes; conditions: human
# in vivo [3] = conditions: both, SD, rat
# in vitro [4] = conditions: rat, plasma
# [5] = tested on: SARS-CoV-2 Omicron strain; test: microbe, parasite or virus in culture
# CYP3A4/5 = test: in vitro; conditions: human, microsomes
# [6] = tested on: Chinese hamster lung (CHL) cells
# in vivo [7] = conditions: both, cynomolgus monkey
# in vivo [8] = conditions: both, Sprague-Dawley, rat
# in vitro [9] = conditions: mouse, plasma
# in vivo [10] = conditions: both, cynomolgus monkey; remark: listed apart in the source
# [11] = tested on: SARS-CoV-2 Omicron strain
# [12] = male, C57BL/6J, in vivo
# SARS-CoV-2 WIV04 strain = test: microbe, parasite or virus in culture; conditions: Severe acute respiratory syndrome coronavirus 2, Vero C1008, read-out: EC50^CP
# [13] = both, cynomolgus monkey, in vivo
# [14] = tested on: human primary hepatocytes; test: cells; conditions: Hepatocyte
# in vitro [15] = conditions: monkey, plasma
# [16] = tested on: human peripheral blood mononuclear cells (PBMCs)
# [17] = both, cynomolgus monkey, in vivo; remark: listed apart in the source
# in vivo [18] = conditions: male, C57BL/6J, mouse, po
# [19] = both, SD, rat, in vivo
# [20] = tested on: human peripheral blood mononuclear cells (PBMCs); test: cells; conditions: PBMC
# CYP enzymes (all tested) = test: in vitro; conditions: human
smiles,measurement,setting,value
"CC(C)(C)[C@H](NC(=O)C(F)(F)F)C(=O)N1CC2(C[C@H]1C(=O)N[C@H](C#N)C[C@@H]1CCNC1=O)SCCS2 [compound 9, simnotrelvir]",time plasma concentration maintained above EC90^total,[1],24 h
same,inhibition of 413 human kinases,413 human kinases,no significant inhibitory activities
same,EC90^total,SARS-CoV-2 Delta strain,0.906 µg/mL
same,EC90,"SARS-CoV-2 Delta strain; Severe acute respiratory syndrome coronavirus 2, Vero C1008, read-out: EC90^total",0.523 µg/mL
same,EC50,SARS-CoV-2 Delta strain; read-out: EC50^CP,34 nM
same,EC90,"SARS-CoV-2 Delta strain; read-out: EC90 (nM), single independent experiment",290 nM and 382 nM
same,IC50 or CC50: PHHs,[2],> 150000 nM
same,toxicity to human hepatocytes,[2],no toxicity was observed
same,Cmax,in vivo [3]; 1000 mg/kg/day,17000 ng/mL
same,NOAEL,in vivo [3]; po,1000 mg/kg/day
same,fraction unbound,in vitro [4],0.334
same,EC50,"[5]; Severe acute respiratory syndrome coronavirus 2, Vero C1008",38.7 nM
same,EC50,"[5]; Severe acute respiratory syndrome coronavirus 2, Vero C1008, read-out: EC50^CP",43 nM
same,IC50,CYP3A4/5,30000 nM
same,activity at 0.1 µM,CYP3A4/5; […],104%
same,activity at 1 µM,CYP3A4/5; […],101%
same,activity at 3.33 µM,CYP3A4/5; […],95.4%
same,activity at 10 µM,"CYP3A4/5; […], 10 μM",73.9%
same,activity at 33.3 µM,"CYP3A4/5; […], 33.3 μM",46.6%
same,activity at 100 µM,"CYP3A4/5; […], 100 μM",21.8%
same,chromosome aberration test (CA) result,[6],negative
same,Cmax,in vivo [7]; 600 mg/kg/day,26400 ng/mL
same,NOAEL,in vivo [7]; po,600 mg/kg/day
same,bioavailability,in vivo [8]; 15 mg/kg,35.3%
same,half-life,in vivo [8]; 15 mg/kg,0.45 h
same,Vd,"in vivo [8]; iv, 15 mg/kg",1.36 L/kg
same,clearance,"in vivo [8]; iv, 15 mg/kg",59.3 mL/min/kg
same,AUC(0-inf),in vivo [8]; po,9000 ng·h/mL
same,AUC(0-t),in vivo [8]; po,8920 ng·h/mL
same,Cmax,in vivo [8]; po,2760 ng/mL
same,half-life,in vivo [8]; po,1.99 h
same,AUC(0-inf),"in vivo [8]; po, 15 mg/kg",1730 ng·h/mL
same,AUC(0-t),"in vivo [8]; po, 15 mg/kg",1700 ng·h/mL
same,Cmax,"in vivo [8]; po, 15 mg/kg",1580 ng/mL
same,half-life,"in vivo [8]; po, 15 mg/kg",1.29 h
same,fraction unbound,in vitro [9],0.217
same,bioavailability,in vivo [10]; 5 mg/kg,41.9%
same,half-life,in vivo [10]; 5 mg/kg,1.7 h
same,Vd,"in vivo [10]; iv, 5 mg/kg",1.5 L/kg
same,clearance,"in vivo [10]; iv, 5 mg/kg",20.7 mL/min/kg
same,AUC(0-inf),in vivo [10]; po,17200 ng·h/mL
same,AUC(0-t),in vivo [10]; po,17000 ng·h/mL
same,Cmax,in vivo [10]; po,2440 ng/mL
same,half-life,in vivo [10]; po,2.38 h
same,AUC(0-inf),"in vivo [10]; po, 5 mg/kg",1790 ng·h/mL
same,AUC(0-t),"in vivo [10]; po, 5 mg/kg",1660 ng·h/mL
same,Cmax,"in vivo [10]; po, 5 mg/kg",625 ng/mL
same,half-life,"in vivo [10]; po, 5 mg/kg",5.63 h
same,EC50,[11],44.9 nM
same,exposure in the mouse brains,[12],moderate simnotrelvir exposure
same,time brain concentration covers EC50^total,[12]; mouse,> 8 h
same,time brain concentration covers EC90^total,[12]; mouse,more than 2 h
same,EC50,SARS-CoV-2 WIV04 strain,26 nM
same,increase of AUC0-∞ by ritonavir,[13],9.6 fold
same,increase of Cmax by ritonavir,[13],3.9 fold
same,IC50,[14],> 150000 nM
same,calculated metabolic contribution of CYP3A,CYP3A,87%
same,fraction unbound,in vitro [15],0.193
same,IC50 or CC50: PBMC,[16],> 150000 nM
same,toxicity to human PBMCs,[16],no toxicity was observed
same,tolerability in two-week toxicity study,[17],well tolerated
same,Cmax,in vivo [18],49300 ng/mL
same,Cmax,in vivo [18]; 50 mg/kg,18500 ng/mL
same,tolerability in two-week toxicity study,[19],well tolerated
same,IC50,[20],> 150000 nM
same,IC50,CYP enzymes (all tested),≥ 30000 nM
